Assay results as given in PubChem BioAssay AID1963841 (Molecular Pharmacology Branch, DTP, NCI, 2024).

Test system: 439559-082-T-J2-PDC spheroid viability
Test: Anticancer human tumor 439559-082-T-J2-PDC patient-derived colon adenocarcinoma cell line growth inhibition [POLQ]
Details: spheroids with HUVEC and MSC; for IC50: curve of first compound; for viability, T/C: stronger effect = lower value
In short: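 PDC + HUVEC + MSC complex spheroids; POLQ inhibitors ± partner drugs; top conc. at/near clinical Cmax, else 10 microM (SN-38 1 microM), half-log dilutions; 37 degrees C, 5% CO2.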

[1] = second compound 0.0316 µM, first compound 0.0316 µM
[2] = second compound 0.0316 µM, first compound 0.1 µM
[3] = second compound 0.0316 µM, first compound 0.316 µM
[4] = second compound 0.0316 µM, first compound 1 µM
[5] = second compound 0.0316 µM, first compound 3.16 µM
[6] = second compound 0.0316 µM, first compound 10 µM
[7] = second compound 0.1 µM, first compound 0.0316 µM
[8] = second compound 0.1 µM, first compound 0.1 µM
[9] = second compound 0.1 µM, first compound 0.316 µM
[10] = second compound 0.1 µM, first compound 1 µM
[11] = second compound 0.1 µM, first compound 3.16 µM
[12] = second compound 0.1 µM, first compound 10 µM
[13] = second compound 0.316 µM, first compound 0.0316 µM
[14] = second compound 0.316 µM, first compound 0.1 µM
[15] = second compound 0.316 µM, first compound 0.316 µM
[16] = second compound 0.316 µM, first compound 1 µM
[17] = second compound 0.316 µM, first compound 3.16 µM
[18] = second compound 0.316 µM, first compound 10 µM
[19] = second compound 1 µM, first compound 0.0316 µM
[20] = second compound 1 µM, first compound 0.1 µM
[21] = second compound 1 µM, first compound 0.316 µM
[22] = second compound 1 µM, first compound 1 µM
[23] = second compound 1 µM, first compound 3.16 µM
[24] = second compound 1 µM, first compound 10 µM
[25] = second compound 3.16 µM, first compound 0.0316 µM
[26] = second compound 3.16 µM, first compound 0.1 µM
[27] = second compound 3.16 µM, first compound 0.316 µM
[28] = second compound 3.16 µM, first compound 1 µM
[29] = second compound 3.16 µM, first compound 3.16 µM
[30] = second compound 3.16 µM, first compound 10 µM
[31] = second compound 10 µM, first compound 0.0316 µM
[32] = second compound 10 µM, first compound 0.1 µM
[33] = second compound 10 µM, first compound 0.316 µM
[34] = second compound 10 µM, first compound 1 µM
[35] = second compound 10 µM, first compound 3.16 µM
[36] = second compound 10 µM, first compound 10 µM
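Note: spheroids exposed to compounds for seven days before readout.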
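Throughout, for viability, T/C: 100% = DMSO vehicle control viability.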

CCc1cc2c(N3CCc4c(cc(Cn5ccnc5)cc4-c4cn(C)nc4C(F)(F)F)C3=O)ccnc2c(OC)n1 + Nc1ccc(C#CCN(C(=O)Cc2ncc(C(F)(F)F)cc2C(F)(F)F)c2ccc(F)cc2)nn1
IC50 (second compound 0.0316 µM): > 10 µM
IC50 (second compound 0.1 µM): > 10 µM
IC50 (second compound 0.316 µM): > 10 µM
IC50 (second compound 1 µM): > 10 µM
IC50 (second compound 3.16 µM): > 10 µM
IC50 (second compound 10 µM): > 10 µM
viability, T/C [1]: 98%
viability, T/C [2]: 94.8%
viability, T/C [3]: 93.3%
viability, T/C [4]: 89.9%
viability, T/C [5]: 83%
viability, T/C [6]: 84%
viability, T/C [7]: 90.6%
viability, T/C [8]: 101%
viability, T/C [9]: 86%
viability, T/C [10]: 86.2%
viability, T/C [11]: 96.5%
viability, T/C [12]: 95.6%
viability, T/C [13]: 102%
viability, T/C [14]: 105%
viability, T/C [15]: 86.5%
viability, T/C [16]: 97.2%
viability, T/C [17]: 93.7%
viability, T/C [18]: 86.9%
viability, T/C [19]: 88.7%
viability, T/C [20]: 95.8%
viability, T/C [21]: 86.5%
viability, T/C [22]: 88.5%
viability, T/C [23]: 95.1%
viability, T/C [24]: 80.5%
viability, T/C [25]: 104%
viability, T/C [26]: 102%
viability, T/C [27]: 95%
viability, T/C [28]: 82.7%
viability, T/C [29]: 88.8%
viability, T/C [30]: 78.7%
viability, T/C [31]: 98.9%
viability, T/C [32]: 91.8%
viability, T/C [33]: 92.2%
viability, T/C [34]: 93.9%
viability, T/C [35]: 91.7%
viability, T/C [36]: 84.7%

CC(=O)O[C@H]1C(=O)[C@@]2(C)[C@H]([C@H](OC(=O)c3ccccc3)[C@]3(O)C[C@H](OC(=O)[C@H](O)[C@@H](NC(=O)c4ccccc4)c4ccccc4)C(C)=C1C3(C)C)[C@]1(OC(C)=O)CO[C@@H]1C[C@@H]2O + Cc1cccc(N(C)C(=O)C2C(O)CCN2c2nc(C)cc(C(F)(F)F)c2C#N)c1
IC50 (second compound 0.0316 µM): 2.19 µM
IC50 (second compound 0.1 µM): 1.78 µM
IC50 (second compound 0.316 µM): 1.9 µM
IC50 (second compound 1 µM): 1.71 µM
IC50 (second compound 3.16 µM): 1.43 µM
IC50 (second compound 10 µM): 0.469 µM
viability, T/C (second compound 0.0316 µM, first compound 0.00949 µM): 77.2%
viability, T/C (second compound 0.0316 µM, first compound 0.03 µM): 78.5%
viability, T/C (second compound 0.0316 µM, first compound 0.0949 µM): 84.2%
viability, T/C (second compound 0.0316 µM, first compound 0.3 µM): 81.3%
viability, T/C (second compound 0.0316 µM, first compound 0.949 µM): 70.5%
viability, T/C (second compound 0.0316 µM, first compound 3 µM): 41.5%
viability, T/C (second compound 0.1 µM, first compound 0.00949 µM): 81.9%
viability, T/C (second compound 0.1 µM, first compound 0.03 µM): 84.4%
viability, T/C (second compound 0.1 µM, first compound 0.0949 µM): 77.4%
viability, T/C (second compound 0.1 µM, first compound 0.3 µM): 72.7%
viability, T/C (second compound 0.1 µM, first compound 0.949 µM): 66.4%
viability, T/C (second compound 0.1 µM, first compound 3 µM): 37.8%
viability, T/C (second compound 0.316 µM, first compound 0.00949 µM): 85.4%
viability, T/C (second compound 0.316 µM, first compound 0.03 µM): 86.6%
viability, T/C (second compound 0.316 µM, first compound 0.0949 µM): 78.5%
viability, T/C (second compound 0.316 µM, first compound 0.3 µM): 74.6%
viability, T/C (second compound 0.316 µM, first compound 0.949 µM): 61%
viability, T/C (second compound 0.316 µM, first compound 3 µM): 42.6%
viability, T/C (second compound 1 µM, first compound 0.00949 µM): 92%
viability, T/C (second compound 1 µM, first compound 0.03 µM): 82%
viability, T/C (second compound 1 µM, first compound 0.0949 µM): 79.4%
viability, T/C (second compound 1 µM, first compound 0.3 µM): 75.2%
viability, T/C (second compound 1 µM, first compound 0.949 µM): 65.2%
viability, T/C (second compound 1 µM, first compound 3 µM): 36.9%
viability, T/C (second compound 3.16 µM, first compound 0.00949 µM): 77.1%
viability, T/C (second compound 3.16 µM, first compound 0.03 µM): 71.5%
viability, T/C (second compound 3.16 µM, first compound 0.0949 µM): 74.1%
viability, T/C (second compound 3.16 µM, first compound 0.3 µM): 70.4%
viability, T/C (second compound 3.16 µM, first compound 0.949 µM): 55%
viability, T/C (second compound 3.16 µM, first compound 3 µM): 37.4%
viability, T/C (second compound 10 µM, first compound 0.00949 µM): 85.1%
viability, T/C (second compound 10 µM, first compound 0.03 µM): 74.2%
viability, T/C (second compound 10 µM, first compound 0.0949 µM): 74.4%
viability, T/C (second compound 10 µM, first compound 0.3 µM): 51.9%
viability, T/C (second compound 10 µM, first compound 0.949 µM): 44.4%
viability, T/C (second compound 10 µM, first compound 3 µM): 36.8%

CC1COCCN1c1cc(C2(S(C)(=N)=O)CC2)nc(-c2ccnc3[nH]ccc23)n1 (stereo unspecified) + COC1C(OC(N)=O)C(O)C(Oc2ccc3c(O)c(NC(=O)c4ccc(O)c(CC=C(C)C)c4)c(=O)oc3c2C)OC1(C)C
IC50 (second compound 0.0316 µM): > 10 µM
IC50 (second compound 0.1 µM): > 10 µM
IC50 (second compound 0.316 µM): > 10 µM
IC50 (second compound 1 µM): > 10 µM
IC50 (second compound 3.16 µM): > 10 µM
IC50 (second compound 10 µM): > 10 µM
viability, T/C [1]: 97.4%
viability, T/C [2]: 98.2%
viability, T/C [3]: 94%
viability, T/C [4]: 101%
viability, T/C [5]: 89.8%
viability, T/C [6]: 65.8%
viability, T/C [7]: 100%
viability, T/C [8]: 101%
viability, T/C [9]: 105%
viability, T/C [10]: 92.6%
viability, T/C [11]: 89.7%
viability, T/C [12]: 66.4%
viability, T/C [13]: 101%
viability, T/C [14]: 91.2%
viability, T/C [15]: 93.5%
viability, T/C [16]: 94.8%
viability, T/C [17]: 90.2%
viability, T/C [18]: 67%
viability, T/C [19]: 95%
viability, T/C [20]: 99.3%
viability, T/C [21]: 91.7%
viability, T/C [22]: 86.6%
viability, T/C [23]: 88.8%
viability, T/C [24]: 66.8%
viability, T/C [25]: 94.7%
viability, T/C [26]: 96.7%
viability, T/C [27]: 89.7%
viability, T/C [28]: 90.8%
viability, T/C [29]: 87.2%
viability, T/C [30]: 64%
viability, T/C [31]: 99.7%
viability, T/C [32]: 97.4%
viability, T/C [33]: 103%
viability, T/C [34]: 89.4%
viability, T/C [35]: 86.1%
viability, T/C [36]: 63.9%
